Laboratory results as given in patent US20220315554A1, “COMPOUNDS COMPRISING A […] LIGAND AND USE THEREOF” (priority 2019, published 2022).
Numbered stars: 1 amine (or outer) side, 2 acyl side, 3 side chain; on linkers, the order of the positions; unused ones are H or OH. Bridge positions count the residues as written; N and C are the ends. Square brackets hold non-standard residues; d marks the D form. Peptide text beside a SMILES is read from it. * marks the point of attachment. X19 = NC(=O)[C@H](CCCCNC(=O)CN1CCN(CC(=O)O)CCN(CC(=O)O)CCN(CC(=O)O)CC1)NC(=O)CCC(=O)NCCCOCCOCCNCCCN*; TBMB(SCH2CH2NH-DOTA) = O=C(O)CN1CCN(CC(=O)O)CCN(CC(=O)NCCSCc2cc(C[*:1])cc(C[*:2])c2)CCN(CC(=O)O)CC1; X8 = O=C1CN2CCN3CCN(CC(=O)N4CCN(Cc5cc(C[*:1])cc(C[*:2])c5)CC4)CCN(CC2)CC(=O)[O][Ga]([O]1)[O]C(=O)C3; X11 = O=C(CN1CCN2CCN3CCN(CC1)CC(=O)[O][In]([O]C(=O)C2)[O]C(=O)C3)NCCSCc1cc(CSCCN[*:2])cc(C[*:1])c1; X2 = O=C(O)CN1CCN(CC(=O)O)CCN(CC(=O)NCCCOCCOCCOCCCN*)CCN(CC(=O)O)CC1; Phe(2-CF3) = N[C@@H](Cc1ccccc1C(F)(F)F)C(=O)O; X12 = NCCNCC(CNCCN)C(=O)NCCCOCCOCCOCCCN*; mXylylene = c1cc(C[*:1])cc(C[*:2])c1; Pentanesulfonyl = CCCCCS(=O)(=O)*; Suc = O=C(CCC(=O)[*:2])[*:1]; 3Amb = NCc1cccc(C(=O)O)c1; Nle = CCCC[C@H](N)C(=O)O; Hexanoyl = CCCCCC(=O)*; Sar = CNCC(=O)O

Tests used:
[1] = target: T1, FAP-expressing human WI-38 fibroblasts (Homo sapiens, UniProt Q12884); test: Competitive FACS binding assay; details: pIC50 Category (FACS), competition with 3 nM Cy5-labeled compound, 4° C., 1 hour
T1 construct: FAP-expressing human WI-38 fibroblasts (ECACC) were cultured in EMEM; host or cells: WI-38 human fibroblasts
T1 sequence (Q12884 1-760): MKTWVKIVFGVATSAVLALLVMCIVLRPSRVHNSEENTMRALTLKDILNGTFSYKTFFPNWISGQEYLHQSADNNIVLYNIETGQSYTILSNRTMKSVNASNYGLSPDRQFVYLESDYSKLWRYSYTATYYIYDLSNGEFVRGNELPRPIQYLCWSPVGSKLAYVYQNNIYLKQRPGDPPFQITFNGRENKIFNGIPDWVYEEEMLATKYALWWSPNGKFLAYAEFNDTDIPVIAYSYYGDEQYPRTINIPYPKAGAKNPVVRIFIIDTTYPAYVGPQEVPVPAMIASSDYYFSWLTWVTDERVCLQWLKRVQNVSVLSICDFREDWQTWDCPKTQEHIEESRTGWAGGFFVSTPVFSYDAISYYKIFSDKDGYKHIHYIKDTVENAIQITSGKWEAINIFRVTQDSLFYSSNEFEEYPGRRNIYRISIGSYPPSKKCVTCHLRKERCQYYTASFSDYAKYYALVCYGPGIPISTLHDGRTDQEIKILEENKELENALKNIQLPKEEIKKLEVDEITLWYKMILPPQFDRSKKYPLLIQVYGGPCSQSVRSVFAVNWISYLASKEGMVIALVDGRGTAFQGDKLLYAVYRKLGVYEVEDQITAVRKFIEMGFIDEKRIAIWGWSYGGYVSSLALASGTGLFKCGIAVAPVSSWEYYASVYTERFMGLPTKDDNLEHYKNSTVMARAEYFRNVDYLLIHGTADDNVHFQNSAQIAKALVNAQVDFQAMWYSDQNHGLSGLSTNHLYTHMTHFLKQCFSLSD
Procedure: Cells were analyzed in an Attune NxT flow cytometer. […]

Human recombinant FAP [2] = target: T2, Human recombinant FAP (Homo sapiens, UniProt Q12884); test: Surface plasmon resonance (Biacore) assay; format: binding
T2 sequence (Q12884 1-760): T1 sequence (Q12884 1-760)

Human recombinant FAP [3] = target: T2, Human recombinant FAP; test: FRET-based FAP protease activity assay; format: biochemical; design: purchased R&D systems 3715-SE; details: pIC50 Category (Activity), FRET substrate, 37° C.

Row | Compound | IC50 [1] | Kd (Human recombinant FAP [2]) | IC50 (Human recombinant FAP [3]) | IC50 ([1]; WI-38 fibroblasts) | IC50 (Human recombinant FAP [3]; recombinant human FAP)
1 | CCCCCC(=O)N[C@H]1CSCc2cc(CSCCNC(=O)CC[C@H](C(=O)O)N3CCN(CC(=O)O)CN(CC(=O)O)C3)cc(c2)CSC[C@@H](C(=O)O)NC(=O)[C@H](Cc2ccccc2)NC(=O)[C@H](CCC(N)=O)NC(=O)[C@H]([C@@H](C)O)NC(=O)[C@@H]2CCCN2C(=O)[C@@H]2CCCN2C1=O [3BP-4162, Hex-[Cys-(tMeBn(NODAGA-AET))-Pro-Pro-Thr-Gln-Phe-Cys]-OH] | < 10 nM | < 10 nM | < 10 nM |  | 
2 | CCCCCC(=O)N[C@H]1CSCc2cc(CSCCNC(=O)CN3CCN4CCN5CCN(CC3)CC(=O)[O][In]([O]C(=O)C4)[O]C(=O)C5)cc(c2)CSCCNC(=O)[C@H](Cc2ccccc2)NC(=O)[C@H](CCC(N)=O)NC(=O)[C@H]([C@@H](C)O)NC(=O)[C@@H]2CCCN2C(=O)[C@@H]2CCCN2C1=O [3BP-3713, Hex-[Cys(tMeBn(InDOTA-AET))-Pro-Pro-Thr-Gln-Phe-AET]] (Hexanoyl-CPPTQF; linker 1-C via X11) | < 10 nM | < 10 nM | < 10 nM |  | 
3 | CCCC[C@H](NC(=O)CCC(=O)NCCCOCCOCCOCCCNC(=O)C(CNCCN)CNCCN)C(=O)N[C@H]1CSCc2cccc(c2)CSC[C@@H](C(=O)O)NC(=O)[C@H](Cc2ccccc2)NC(=O)[C@H](CCC(=O)O)NC(=O)[C@H]([C@@H](C)O)NC(=O)[C@@H]2CCCN2C(=O)[C@@H]2CCCN2C1=O [3BP-4161, N4Ac-Ttds-Nle-[Cys-(3MeBn)-Pro-Pro-Thr-Glu-Phe-Cys]-OH] ({X12-Suc}-[Nle]CPPTEFC-OH; linker 2-8 via mXylylene) | < 10 nM | < 10 nM | < 10 nM |  | 
4 | CCCCCC(=O)N[C@H]1CSCc2cc(cc(CN3CCN(C(=O)CN4CCN5CCN6CCN(CC4)CC(=O)[O][Ga]([O]C(=O)C6)[O]C(=O)C5)CC3)c2)CSC[C@@H](C(=O)N[C@@H](CC(=O)O)C(N)=O)NC(=O)[C@H](Cc2ccccc2)NC(=O)[C@H](CCC(N)=O)NC(=O)[C@H]([C@@H](C)O)NC(=O)[C@@H]2CCCN2C(=O)[C@@H]2CCCN2C1=O [3BP-3592, Gallium-Complex of Hex-[Cys(tMeBn(DOTA-PP))-Pro-Pro-Thr-Gln-Phe-Cys]-Asp-NH2] (Hexanoyl-CPPTQFCD-NH2; linker 1-7 via X8) |  | < 10 nM |  | < 10 nM | < 10 nM
5 | CCCCCC(=O)N[C@H]1CSCc2cccc(c2)CSC[C@@H](C(=O)N[C@@H](CCCCNC(=O)CCC(=O)NCCCOCCOCCOCCCNC(=O)CN2CCN(CC(=O)O)CCN(CC(=O)O)CCN(CC(=O)O)CC2)CC(=O)O)NC(=O)[C@H](Cc2ccccc2)NC(=O)[C@H](CCC(N)=O)NC(=O)[C@H]([C@@H](C)O)NC(=O)[C@@H]2CCCN2C(=O)[C@@H]2CCCN2C1=O [3BP-3489, Hex-[Cys(3MeBn)-Pro-Pro-Thr-Gln-Phe-Cys]-Bhk(DOTA-Ttds)-OH] |  | < 10 nM |  | < 10 nM | < 10 nM
6 | CCCCCC(=O)N[C@H]1CSCc2cc(cc(CN3CCN(C(=O)C(CNCCN)CNCCN)CC3)c2)CSC[C@@H](C(=O)O)NC(=O)[C@H](Cc2ccccc2)NC(=O)[C@H](CCC(N)=O)NC(=O)[C@H]([C@@H](C)O)NC(=O)[C@@H]2CCCN2C(=O)[C@@H]2CCCN2C1=O [3BP-4168, Hex-[Cys-(tMeBn(N4Ac-PP))-Pro-Pro-Thr-Gln-Phe-Cys]-OH] | < 10 nM | < 10 nM | < 10 nM |  | 
7 | CCCC[C@H](NC(=O)CCC(=O)NCCCOCCOCCOCCCNC(=O)CN1CCN(CC(=O)O)CCN(CC(=O)O)CCN(CC(=O)O)CC1)C(=O)N[C@H]1CSCc2cccc(c2)CSC[C@@H](C(=O)N[C@@H](CC(=O)O)C(N)=O)NC(=O)[C@H](Cc2ccccc2)NC(=O)[C@H](CCC(N)=O)NC(=O)[C@H]([C@@H](C)O)NC(=O)[C@@H]2CCCN2C(=O)[C@@H]2CCCN2C1=O [3BP-3401, DOTA-Ttds-Nle-[Cys(3MeBn)-Pro-Pro-Thr-Gln-Phe-Cys]-Asp-NH2] ({X2-Suc}-[Nle]CPPTQFCD-NH2; linker 2-8 via mXylylene) |  | < 10 nM |  | < 10 nM | < 10 nM
8 | CCCCCC(=O)N[C@H]1CSCc2cccc(c2)CSC[C@@H](C(=O)N[C@@H](CC(=O)O)C(N)=O)NC(=O)[C@H](Cc2ccccc2)NC(=O)[C@H](CCC(=O)O)NC(=O)[C@H]([C@@H](C)O)NC(=O)[C@@H]2CCCN2C(=O)[C@@H]2CCCN2C1=O [3BP-3288, Hex-[Cys(3MeBn)-Pro-Pro-Thr-Glu-Phe-Cys]-Asp-NH2] (Hexanoyl-CPPTEFCD-NH2; linker 1-7 via mXylylene) |  | < 10 nM |  | < 10 nM | < 10 nM
9 | CCCCCC(=O)N[C@H]1CSCc2cccc(c2)CSC[C@@H](C(=O)N[C@@H](CC(=O)O)C(=O)NCc2cccc(C(=O)N[C@@H](CCCNC(=N)N)C(N)=O)c2)NC(=O)[C@H](Cc2ccccc2)NC(=O)[C@H](CCC(=O)O)NC(=O)[C@H]([C@@H](C)O)NC(=O)[C@@H]2CCCN2C(=O)[C@@H]2CCCN2C1=O [3BP-3324, Hex-[Cys(3MeBn)-Pro-Pro-Thr-Glu-Phe-Cys]-Asp-Mamb-Arg-NH2] (Hexanoyl-CPPTEFCD[3Amb]R-NH2; linker 1-7 via mXylylene) |  | < 10 nM |  | < 10 nM | < 10 nM
10 | CCCCCC(=O)N[C@H]1CSCc2cc(CSCCNC(=O)CN3CCN(CC(=O)O)CCN(CC(=O)O)CCN(CC(=O)O)CC3)cc(c2)CSC[C@@H](C(=O)O)NC(=O)[C@H](Cc2ccccc2C(F)(F)F)NC(=O)[C@H](CCC(N)=O)NC(=O)[C@H]([C@@H](C)O)NC(=O)[C@@H]2CCCN2C(=O)CN(C)C1=O [3BP-3680, Hex-[Cys(tMeBn(DOTA-AET))-Pro-Pro-Thr-Gln-Otf-Cys]-OH] (Hexanoyl-C[Sar]PTQ[Phe(2-CF3)]C-OH; linker 1-7 via TBMB(SCH2CH2NH-DOTA)) | < 10 nM | < 10 nM | < 10 nM |  | 
11 | CCCCCC(=O)N[C@H]1CSCc2cc(CSCCNC(=O)COCCOCCNC(=O)CC[C@H](C(=O)O)N3CCN(CC(=O)O)CCN(CC(=O)O)CC3)cc(c2)CSC[C@@H](C(=O)O)NC(=O)[C@H](Cc2ccccc2)NC(=O)[C@H](CCC(N)=O)NC(=O)[C@H]([C@@H](C)O)NC(=O)[C@@H]2CCCN2C(=O)[C@@H]2CCCN2C1=O [3BP-4251, Hex-[Cys-(tMeBn(NODAGA-O2Oc-AET))-Pro-Pro-Thr-Gln-Phe-Cys]-OH] | < 10 nM | < 10 nM | < 10 nM |  | 
12 | CCCCCC(=O)N[C@H]1CSCc2cc(CSCCNC(=O)CN3CCN(CC(=O)O)CCN(CC(=O)O)CCN(CC(=O)O)CC3)cc(c2)CSC[C@@H](C(=O)NCCCC(=O)O)NC(=O)[C@H](Cc2ccccc2)NC(=O)[C@H](CCC(N)=O)NC(=O)[C@H]([C@@H](C)O)NC(=O)[C@@H]2CCCN2C(=O)[C@@H]2CCCN2C1 [3BP-3657, Hex-[Cys(tMeBn(DOTA-AET))-Pro-Pro-Thr-Gln-Phe-Cys]-Gab-OH] |  | < 10 nM |  | < 10 nM | < 10 nM
13 | CCCCCC(=O)N[C@H]1CSCc2cccc(c2)CSC[C@@H](C(=O)N[C@@H](CC(=O)O)C(=O)NCCCNCCOCCOCCCNC(=O)CCC(=O)N[C@@H](CCCCNC(=O)CN2CCN(CC(=O)O)CCN(CC(=O)O)CCN(CC(=O)O)CC2)C(N)=O)NC(=O)[C@H](Cc2ccccc2)NC(=O)[C@H](CCC(=O)O)NC(=O)[C@H]([C@@H](C)O)NC(=O)[C@@H]2CCCN2C(=O)[C@@H]2CCCN2C1=O [3BP-3396, Hex-[Cys(3MeBn)-Pro-Pro-Thr-Glu-Phe-Cys]-Asp-Ttds-Lys(DOTA)-NH2] (Hexanoyl-CPPTEFCD-X19; linker 1-7 via mXylylene) |  | < 10 nM |  | < 10 nM | < 10 nM
14 | CCCCCC(=O)N[C@H]1CSCc2cc(CSCCNC(=O)CN3CCN(CC(=O)O)CCN(CC(=O)O)CCN(CC(=O)O)CC3)cc(c2)CSC[C@@H](C(=O)O)NC(=O)[C@H](Cc2ccccc2)NC(=O)[C@H](CCC(=O)O)NC(=O)[C@H]([C@@H](C)O)NC(=O)[C@@H]2CCCN2C(=O)[C@@H]2CCCN2C1=O [3BP-4250, Hex-[Cys-(tMeBn(DOTA-AET))-Pro-Pro-Thr-Glu-Phe-Cys]-OH] (Hexanoyl-CPPTEFC-OH; linker 1-7 via TBMB(SCH2CH2NH-DOTA)) | < 10 nM | < 10 nM | 10 to 79.4 nM |  | 
15 | CCCCCS(=O)(=O)N[C@H]1CSCc2cccc(c2)CSC[C@@H](C(=O)N[C@@H](CC(=O)O)C(N)=O)NC(=O)[C@H](Cc2ccccc2)NC(=O)[C@H](CCC(N)=O)NC(=O)[C@H]([C@@H](C)O)NC(=O)[C@@H]2CCCN2C(=O)[C@@H]2CCCN2C1=O [3BP-3514, Pentyl-SO2-[Cys(3MeBn)-Pro-Pro-Thr-Gln-Phe-Cys]-Asp-NH2] (Pentanesulfonyl-CPPTQFCD-NH2; linker 1-7 via mXylylene) |  | < 10 nM |  | < 10 nM | < 10 nM
